Data set [1] deals with Blast cells from B-ALL patients. Kind of data set: MTT growth inhibition on primary cultures, 24 h. In kind it is cell-based, human. Particulars: B-acute lymphoblastic leukemia patients primary cultures. The protocol: (§1) CP growth inhibitory activity was measured on primary cultures derived from pediatric patients affected by B-acute lymphoblastic leukemia. […] In particular, in resting and in PHA-stimulated PBMC, and in CD19^+ cells GI50 was higher than 10 μM confirming that CP preferentially affects leukemia cells.
FIGURE 6 CP effects on B-ALL primary cultures (A) Blast cells from six B-ALL patients were incubated for 24 h with different concentrations of CP. For the sake of comparison CD19^+ cells from peripheral blood of healthy donors, and PBMC were also incubated with CP in the presence or absence of PHA. Cell viability were assayed by MTT analysis. Data are represented as mean ± S.E.M of four independent experiments. […] Cell viability was evaluated on the whole population by flow cytometry after staining the cells with Annexin-V-FITC and PI. are represented as mean ± S.E.M of 3 independent experiments. […]
The human leukemia cell lines RS 4;11, SEM, REH, RCH-ACV, MHH-CALL2, Jurkat, CCRF-CEM, HSB2, HL-60, K562, THP-1, MV4;11 were purchased from the American Type Culture Collection. […] The cytotoxic activity of CP was determined using a standard 3-[4,5-dimethylthiazol-2-yl]-2,5-diphenyltetrazodium bromide (MTT) based colorimetric assay (Sigma-Aldrich, Italy). […] After different times, cell survival was determined by the addition of an MTT solution as previously described. […]

The test system of data set [2] is Bone marrow cells from healthy donors. Kind of data set: Annexin-V-FITC/PI viability by flow cytometry, 24 h. The settings on record: CP 2.5 μM and 5 μM. In kind it is cell-based, human. As for the experimental part:
as §1
FIGURE 6 CP effects on B-ALL primary cultures (A) Blast cells from six B-ALL patients were incubated for 24 h with different concentrations of CP. For the sake of comparison CD19^+ cells from peripheral blood of healthy donors, and PBMC were also incubated with CP in the presence or absence of PHA. Cell viability were assayed by MTT analysis. Data are represented as mean ± S.E.M of four independent experiments. (B) Bone marrow cells from healthy donors were treated for 24 h with CP (2.5 μM and 5 μM). Cell viability was evaluated on the whole population by flow cytometry after staining the cells with Annexin-V-FITC and PI. are represented as mean ± S.E.M of 3 independent experiments. […]
Surface exposure of PS by apoptotic cells was measured by flow cytometry with a Coulter Cytomics FC500 (Beckmann Coulter, USA) by adding Annexin V-FITC and propidium iodide (PI) to cells according to the manufacturer's instructions (Annexin-V Fluos, Roche Diagnostic, Italy).
Background: A flow cytometer gives signals particle by particle.

The subject of data set [3] is 26S proteasome semipurified from RS4;11 cells, Trypsin-like (T) activity. Kind of data set: Proteasome activity on semipurified cell extract (fluorogenic substrate). The data set is classed as biochemical, human. The settings on record: RS4;11 extract, 60 min at 37 °C, cell-free. From the text: (§2) The 26S proteasome is a multicatalytic protease responsible for the regulated intracellular protein degradation. Its function is mediated by three main catalytic activities i) chymotrypsin like (CT) ii) Trypsin-like (T) and iii) peptidyl glutamyl peptide hydrolyzing (PGPH). To evaluate the effect of CP on the proteasome activity in leukemia cells, we tested increasing concentrations of the compound on semipurified 26S proteasome extract from RS4;11 and SEM cells, and measured the functioning of each individual proteolytic activity under cell-free condition.
(§3) FIGURE 3 CP treatment affects Ubiquitin Proteasome System (UPS) 26S proteasome (100 μg) semipurified from (A) SEM and (B) RS4;11 cells was incubated for 60 min at 37 °C with CP at different concentrations. Chymotrypsin (CT), trypsin (T) and peptidyl glutamyl peptide hydrolyzing (PGPH) catalytic activity were measured fluorimetrically (excitation 370, nm emission 460) by following the release of free AMC from synthetic substrates N-Suc-Leu-Leu-Val-Tyr-AMC, Boc-Gln-Ala-Arg-AMC and Z-Leu-Leu-Glu-AMC, specific for CT, T and PGPH activity, respectively. (C) Cells were incubated with CP 2.5 μM for the indicated times and then western blot analyses were performed to evaluate Ubiquitin accumulation.
(§4) RS4;11 and SEM cells were homogenized in a lysis buffer (50 mM Tris-HCl, pH 7.5, 250 mM sucrose, 5 mM MgCl2, 1 mM DTT, 0.5 mM EDTA) and ultracentrifuged for 2 h at 300,000 g. Total protein content was estimated with BioRad protein assay (BioRad) and 100 μg of protein aliquots were incubated for 60 min at 37°C with CP at different concentrations. Afterwards, fluorogenic proteasome substrates (N-Suc-Leu-Leu-Val-Tyr-7-amido-4-methylcoumarin (AMC) for chymotripsin (CT), Boc-Gln-Ala-Arg-AMC for tripsin (T) and Z-Leu-Leu-Glu-AMC for peptidyl glutamyl peptide hydrolyzing (PGPH) were added and the substrate hydrolysis was measured after 30 min by monitoring the release of Tyr-7-amido-4-methylcoumarin (AMC) using a Varian Cary Eclipse (Varian) spectrofluorometer (excitation at 370 nm, emission at 460 nm).

For data set [4], the system named is 26S proteasome semipurified from RS4;11 cells, chymotrypsin like (CT) activity. The description is as above. The data set is classed as biochemical, human. The settings on record: RS4;11 extract, 60 min at 37 °C, cell-free.
Text: as §2, §3, §4

The test system of data set [5] is 26S proteasome semipurified from RS4;11 cells, peptidyl glutamyl peptide hydrolyzing (PGPH) activity. The description is as above. In kind it is biochemical, human. The settings on record: RS4;11 extract, 60 min at 37 °C, cell-free.
Text: as §2, §3, §4

In data set [6] the test system is 26S proteasome semipurified from SEM cells, Trypsin-like (T) activity. The description is as above. The data set is classed as biochemical, human. The settings on record: 60 min at 37 °C, cell-free.
Text: as §2, §3, §4

Data set [7] relates to 26S proteasome semipurified from SEM cells, chymotrypsin like (CT) activity. Described as above. Particulars: 60 min at 37 °C, cell-free. The data set is classed as biochemical, human.
Text: as §2, §3, §4

The subject of data set [8] is 26S proteasome semipurified from SEM cells, peptidyl glutamyl peptide hydrolyzing (PGPH) activity. The data set is described as above. In kind it is biochemical, human. Particulars: 60 min at 37 °C, cell-free.
Text: as §2, §3, §4

This note sets out measurements from paper PMC4171606, “A novel copper(I) complex induces ER-stress-mediated apoptosis and sensitizes B-acute lymphoblastic leukemia cells to chemotherapeutic agents” (Oncotarget, 2014).

Molecules are shown by their SMILES.

As to `F[P-](F)(F)(F)(F)F.OCP(CO)CO.OCP(CO)CO.OCP(CO)CO.OCP(CO)CO.[Cu+]` [CP, [Cu(thp)4][PF6]], the concentration for 50% growth inhibition (GI50) in data set [1] worked out at 2.3 µM. In addition, in data set [2], the “viability of lymphocyte and monocyte populations” value was “did not affect the viability”. The IC50 is roughly 11 µM in data set [3]; roughly 18 µM in data set [4]; roughly 10 µM in data set [5]; roughly 12 µM in data set [6]; roughly 15 µM in data set [7]; roughly 16 µM in data set [8].

Broadly, the GI50 is the concentration that inhibits growth by half. A high value points to less potent growth inhibition. Broadly, the IC50 is the midpoint of a concentration-inhibition curve. Lower therefore signals higher potency.
